How the values were obtained:
[1] = system: panelists; experiment: Cooling intensity: panelists taste aqueous solutions, compared with menthol at 2 ppm; type: in vivo; conditions: aqueous solution with cooling intensity similar to or slightly higher than a solution of menthol at 2 ppm; tasted by small group of panelists
[2] = system: panelists; experiment: Application in toothpaste: duration of perceived cooling sensation after brushing; type: in vivo; conditions: 0.10 g of 10% ethanol solution of compound + 0.03 g saccharin in 9.96 g opaque toothgel base; teeth brushed, mouth rinsed with water
Procedure: 0.10 g of a 10% solution in ethanol of a compound of formula (I) listed in Table 4 below and 0.03 g saccharin were mixed in 9.96 g of an opaque toothgel base. A piece of the thus prepared toothpaste was put on a toothbrush and a panelist's teeth were brushed. The mouth was rinsed with water and the water spat out. A long lasting cooling sensation was felt by the panelist in all areas of the mouth. The cooling sensation was perceived for up to 60 min (see Table 5).

Row | Structure (SMILES) | Concentration [1] [ppm] | Perceived cooling sensation [2] [min]
1 | CC(C)[C@@H]1CC[C@@H](C)C[C@H]1C(=O)NCCc1ccccn1 [(1R,2S,5R)-2-isopropyl-5-methyl-N-(2-(pyridin-2-yl)ethyl)cyclohexanecarboxamide, reference compound] | 0.02 | 
2 | CC(C)[C@@H]1CC[C@@H](C)C[C@H]1C(=O)Nc1ccc(CC#N)cc1 [(1R,2S,5R)-N-(4-(cyanomethyl)phenyl)-2-isopropyl-5-methylcyclohexanecarboxamide, reference compound] | 0.2 | 
3 | CC(Cc1cccnc1)NC(=O)[C@@H]1C[C@H](C)CC[C@H]1C(C)C (stereo partly drawn) [Example 1, (1R,2S,5R)-2-isopropyl-5-methyl-N-(1-(pyridin-3-yl)propan-2-yl)cyclohexanecarboxamide] | 0.01 | 30
4 | CC(C)[C@@H]1CC[C@@H](C)C[C@H]1C(=O)NCCc1ncc[nH]1 [Example 2H, (1R,2S,5R)-N-(2-(1H-imidazol-2-yl)ethyl)-2-isopropyl-5-methlycyclohexane-carboxamide] | 0.2 | 40
5 | Cc1[nH]c2ccccc2c1CCNC(=O)[C@@H]1C[C@H](C)CC[C@H]1C(C)C [Example 2I, (1R,2S,5R)-2-isopropyl-5-methyl-N-(2-(2-methyl-1H-indol-3-yl)ethyl)cyclohexane-carboxamide] |  | 60
6 | CC(C)[C@@H]1CC[C@@H](C)C[C@H]1C(=O)NCCn1ccc2ccccc21 [Example 2J, (1R,2S,5R)-N-(2-(1H-indol-1-yl)ethyl)-2-isopropyl-5-methylcyclohexanecarboxamide] | 0.002 | 
7 | CC(Cc1ccsc1)NC(=O)[C@@H]1C[C@H](C)CC[C@H]1C(C)C (stereo partly drawn) [Example 2M, (1R,2S,5R)-2-isopropyl-5-methyl-N-(1-(thiophen-3-yl)propan-2-yl)cyclohexane-carboxamide] | 0.002 | 40
8 | CC1CCC(C(C)C)C(O)C1 (stereo not drawn) [I-Menthol, reference compound] | 2.0 | 
9 | CCNC(=O)C1CC(C)CCC1C(C)C (stereo not drawn) [N-ethyl p-menthanecarboxamide, reference compound] | 1.5 | 
